Key:
[1] = Tmax in Beagle dog plasma 2 mg/kg, po measured for 15 to 1440 mins by LC-MS/MS analysis; type: ADME, organism-based, Canis lupus familiaris; conditions: time 15-1440 min
[2] = Oral bioavailability in Beagle dog plasma 2 mg/kg measured for 15 to 1440 mins by LC-MS/MS analysis relative to control; type: ADME, organism-based, Canis lupus familiaris; conditions: time 15-1440 min
[3] = Drug uptake in Wistar Han rat plasma 10 mg/kg, po measured after 24 hrs mins by LC-MS/MS analysis; type: ADME, organism-based
[4] = Clearance in Wistar Han rat plasma 2 mg/kg, iv measured for 2 to 1440 mins by LC-MS/MS analysis; type: ADME, organism-based; conditions: time 2-1440 min
[5] = Tmax in Wistar Han rat plasma 10 mg/kg, po measured for 15 to 1440 mins by LC-MS/MS analysis; type: ADME, organism-based; conditions: time 15-1440 min
[6] = Clearance in Beagle dog plasma 1 mg/kg, iv measured for 2 to 1440 mins by LC-MS/MS analysis; type: ADME, organism-based, Canis lupus familiaris; conditions: time 2-1440 min
[7] = Cmax in Beagle dog plasma 2 mg/kg, po measured for 15 to 1440 mins by LC-MS/MS analysis; type: ADME, organism-based, Canis lupus familiaris
[8] = AUC in Beagle dog plasma 2 mg/kg, po measured for 15 to 1440 mins by LC-MS/MS analysis; type: ADME, organism-based, Canis lupus familiaris
[9] = Cmax in Wistar Han rat plasma 10 mg/kg, po measured for 15 to 1440 mins by LC-MS/MS analysis; type: ADME, organism-based
[10] = Half life in Beagle dog plasma 1 mg/kg, iv by LC-MS/MS analysis; type: ADME, organism-based, Canis lupus familiaris
[11] = Half life in Wistar Han rat plasma 2 mg/kg, iv by LC-MS/MS analysis; type: ADME, organism-based
[12] = Drug uptake in Beagle dog plasma 2 mg/kg, po measured after 24 hrs mins by LC-MS/MS analysis; type: ADME, organism-based, Canis lupus familiaris
[13] = AUC in Wistar Han rat plasma 10 mg/kg, po measured for 15 to 1440 mins by LC-MS/MS analysis; type: ADME, organism-based
[14] = Oral bioavailability in Wistar Han rat plasma 10 mg/kg measured for 15 to 1440 mins by LC-MS/MS analysis relative to control; type: ADME, organism-based; conditions: time 15-1440 min
[15] = Cmax in rat at 10 mg/kg; type: ADME, organism-based; design: dose 10 mg/kg; conditions: in vivo
[16] = Drug uptake in rat at 10 mg/kg measured after 24 hrs; type: ADME, organism-based; conditions: in vivo, read-out: Drug uptake
[17] = Drug uptake in rat assessed as unbound concentration at 10 mg/kg measured after 24 hrs; type: ADME, organism-based; conditions: in vivo
[18] = Unbound Cmax in rat at 10 mg/kg; type: ADME, organism-based; conditions: in vivo

| Tmax [1] [h] | bioavailability [2] [%] | concentration at 24 h [3] [nM] | clearance [4] [mL/min/kg] | Tmax [5] [h] | clearance [6] [mL/min/kg] | Cmax [7] [nM] | AUC [8] [µM·h] | Cmax [9] [nM] | half-life [10] [h] | half-life [11] [h] | concentration at 24 h [12] [nM] | AUC [13] [µM·h] | bioavailability [14] [%] | Cmax [15] [nM] | concentration at 24 h [16] [nM] | Drug uptake(free) [17] [nM] | fCmax [18] [nM] | SMILES |
| --- | --- | --- | --- | --- | --- | --- | --- | --- | --- | --- | --- | --- | --- | --- | --- | --- | --- | --- |
| 3 | 11 | 7.2 | 65 | 5 | 2.9 | 15 | 0.07 | 150 | 91 | 5.4 | 2 | 1.1 | 25 | – | – | – | – | CCC(=O)CCCCC[C@H](NC(=O)[C@H]1CC12CCN(CC)CC2)c1ncc(-c2cc3ccc(C)nc3cc2OC)o1 |
| – | – | 3.6 | 49 | 4 | – | – | – | 510 | – | 5.1 | – | 2.3 | 37 | – | – | – | – | CCC(=O)CCCCC[C@H](NC(=O)[C@H]1CC12CCN(CC)CC2)c1ncc(-c2cc3cn(C)nc3cc2OC)o1 |
| – | – | 8.9 | 12 | 5 | – | – | – | 170 | – | 33 | – | 0.98 | 2.5 | – | – | – | – | CCC(=O)CCCCC[C@H](NC(=O)[C@H]1CC12CCN(C)CC2)c1ncc(-c2cc3ccc(C)nc3cc2OC)[nH]1 |
| 3 | 42 | 28 | 25 | 4 | 6 | 72 | 0.57 | 2500 | 43 | 4.8 | 3.3 | 10 | 78 | – | – | – | – | CCC(=O)CCCCC[C@H](NC(=O)[C@H]1CC12CCN(C)CC2)c1ncc(-c2cc3ccc(C)nc3cc2OC)o1 |
| – | – | – | 45 | 0.3 | – | – | – | 4 | – | 2.9 | – | 0.01 | 0.1 | – | – | – | – | CCC(=O)CCCCC[C@H](NC(=O)[C@H]1CC12CCN(C)CC2)c1ncc(-c2ccc3nc(C)ccc3c2)[nH]1 |
| – | – | 9.2 | 6 | 3 | – | – | – | 2100 | – | 3.9 | – | 9.7 | 20 | – | – | – | – | CCC(=O)CCCCC[C@H](NC(=O)[C@H]1CC12CCN(CC)CC2)c1ncc(-c2cc3cccnc3nc2OC)o1 |

Further lines, the molecule ahead of its results:

| SMILES | Tmax [1] [h] | bioavailability [2] [%] | concentration at 24 h [3] [nM] | clearance [4] [mL/min/kg] | Tmax [5] [h] | clearance [6] [mL/min/kg] | Cmax [7] [nM] | AUC [8] [µM·h] | Cmax [9] [nM] | half-life [10] [h] | half-life [11] [h] | concentration at 24 h [12] [nM] | AUC [13] [µM·h] | bioavailability [14] [%] | Cmax [15] [nM] | concentration at 24 h [16] [nM] | Drug uptake(free) [17] [nM] | fCmax [18] [nM] |
| --- | --- | --- | --- | --- | --- | --- | --- | --- | --- | --- | --- | --- | --- | --- | --- | --- | --- | --- |
| CCC(=O)CCCCC[C@H](NC(=O)[C@H]1CC12CCN(C)CC2)c1ncc(-c2cc3ccc(C)nc3cc2F)o1 | – | – | 1 | 71 | 2 | – | – | – | 63 | – | 1.9 | – | 0.3 | 6.9 | – | – | – | – |
| CCC(=O)CCCCC[C@H](NC(=O)[C@H]1CC12CCN(C)CC2)c1ncc(-c2cc3ccccc3nc2OC)[nH]1 | – | – | – | – | – | – | – | – | – | – | – | – | – | – | 627 | 9 | 0.11 | 7.5 |
| CCC(=O)CCCCC[C@H](NC(=O)[C@H]1CC12CCN(C(C)C)CC2)c1ncc(-c2cc3ccc(C)nc3cc2OC)[nH]1 | – | – | 1 | 60 | 2.1 | – | – | – | 9 | – | 24 | – | 0.02 | 0.6 | – | – | – | – |
| CCC(=O)CCCCC[C@H](NC(=O)[C@H]1CC12CCN(CC)CC2)c1ncc(-c2cc3ccc(C)nc3cc2OC)[nH]1 | 1.3 | 4.1 | 3.2 | 51 | 2.1 | 24 | 26 | 0.1 | 97 | 19 | 13 | 1.2 | 0.47 | 7.9 | – | – | – | – |
| CCC(=O)CCCCC[C@H](NC(=O)[C@H]1CC12CCN(CC)CC2)c1ncc(-c2cc3ccn(CC)c(=O)c3cc2OC)o1 | – | – | 2.2 | 100 | 5 | – | – | – | 120 | – | 6.5 | – | 0.6 | 22 | – | – | – | – |
| CCC(=O)CCCCC[C@H](NC(=O)[C@H]1CC12CCN(C)CC2)c1ncc(-c2cc3cccnc3cc2OC)[nH]1 | – | – | 1 | 61 | 2.1 | – | – | – | 20 | – | 9.5 | – | 0.06 | 2 | – | – | – | – |

Reference: ChEMBL document CHEMBL5214898 (J Med Chem, 2021)
